# Paper PMC6208323 (Cell chemical biology, 2018)
# Where two headings read alike, the source gives them in different places.
# Columns and labels:
# [1] = biological target: TnmS1 (Streptomyces sp. CB03234, UniProt A0A125SA24); test: fluorescence quenching; assay type: binding
# [2] = biological target: (UniProt S2XVS8); test: fluorescence quenching; assay type: binding, Streptomyces sp. HGB0020
# [3] = biological target: TnmS3 (Streptomyces sp. CB03234, UniProt A0A125SA29); test: fluorescence quenching; assay type: binding
# [4] = biological target: CBFG_04671 (Clostridium pacaense, UniProt A0ABV1D2N3); test: fluorescence quenching; assay type: binding
# [5] = biological target: TnmS2 (Streptomyces sp. CB03234, UniProt A0A125SA26); test: fluorescence quenching; assay type: binding
# [6] = biological target: TnmS1 (Streptomyces sp. CB03234); test: SEC
# [7] = biological target: TnmS2 (Streptomyces sp. CB03234); test: SEC
# [8] = biological target: TnmS3 (Streptomyces sp. CB03234); test: SEC
# [9] = 20 mM MOPS pH 7.0, 28 °C, 2 μM protein, ligand in DMSO
# (UniProt S2XVS8), sequence (S2XVS8 1-128): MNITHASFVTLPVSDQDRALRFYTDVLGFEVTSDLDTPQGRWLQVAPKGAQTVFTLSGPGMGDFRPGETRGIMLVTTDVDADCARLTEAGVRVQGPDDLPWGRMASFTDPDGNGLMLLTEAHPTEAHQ
compound,measurement,setting,value
COc1ccc2c(c1O)C(=O)c1c3c(cc(O)c1C2=O)[C@@]12O[C@@]1([C@@H](C)O)[C@H](C#C/C=C\C#C[C@H]2O)N3 [TNM A],Kd,[1],0.163 ± 0.017 µM
same,Kd,[2],0.164 ± 0.023 µM
same,Kd,[3],0.108 ± 0.013 µM
same,Kd,[4],0.855 ± 0.066 µM
same,Kd,[5],0.246 ± 0.036 µM
Cc1cc2nc3c(=O)[nH]c(=O)nc-3n(C[C@H](O)[C@H](O)[C@H](O)CO)c2cc1C [riboflavin],Kd,[1],84.1 µM
same,Kd,[3],1.1 µM
same,Kd,[5],59.5 µM
TNM C,Kd,[1]; [9],0.35 ± 0.041 µM
same,Kd,[3]; [9],0.215 ± 0.027 µM
same,Kd,[5]; [9],0.361 ± 0.065 µM
TnmS1 (natural protein),stoichiometry N,[6],2
TnmS2 (natural protein),stoichiometry N,[7],2
TnmS3 (natural protein),stoichiometry N,[8],2
